According to PMC7473840, “Identification of a molecular locus for normalizing dysregulated GABA release from interneurons in the Fragile X brain” (Molecular Psychiatry, 2018):
pKd: −log10 of the molar value. “Also recorded” adds a separate entry of the source.

Tests used:
Fmr1-KO mice = experiment: Three-chambered sociability test, Fmr1-KO; type: in vivo, mouse; settings: 200 mg/kg i.p., 30 min before test; 7–9-week-old male; n = 7
Source text: (§1) The three-chambered sociability test was composed of three sessions: habituation (trail 1), sociability (trial 2), and social novelty (trial 3), which evaluated sociable behavior and recognition of social novelty. For habituation, 7–9-week-old testing male mouse was placed in the middle chamber and allowed to freely explore all three chambers. In the sociability session, a stranger mouse (the same strain and gender but never encountered before) was put underneath a grid cup and placed in one of the two side-chambers, while another identical empty cup was placed on the other side. In the social novelty session, another stranger mouse was put inside the previously empty cup. Each session lasted 9 min. Physical contacts around the cups with the nose, head, and forelimbs, were defined as sniffing behavior and used as an index for sociable behavior [47]. A camera, connected to a computer, was used to track mice activity using the ANY-maze software (ANY-maze, Stoelting Co., IL, USA). Testing was conducted 30 min after saline or DHA (200 mg/kg, Sigma) injection (intraperitoneal, i.p.) to minimize distress from drug administration and ensure normal physical activity that could be affected by DHA for a short period.

BC–PN synapse, Fmr1-KO = experiment: sIPSCs from PNs, Fmr1-KO synapses; type: cell-based, mouse; settings: 10 µM applied to Fmr1-KO cerebellar slices; n = 8
[1] = ref [45]; cited from earlier work
Kv1.2 = experiment: K+ current by voltage ramp, CHO cells expressing Kv1.2-WT; type: cell-based; settings: 1 µM, n = 7
Source text: Fig. 3 Direct interaction between FMRP and Kv1.2 in a phosphorylation-specific manner. a Illustration of an alpha subunit of Kv1.2 channel with extensive details of intracellular C-terminus. b K^+ current generated by a voltage ramp (−90 to 100 mV, top) from CHO cells expressing WT (Kv1.2-WT, middle) or truncated Kv1.2 (Kv1.2-Δ429-500, bottom) before and after infusion of N-terminus FMRP protein (n-FMRP, H00002332-P01, Novus Biologicals, 1:100 dilution). c The changes in amplitude of K^+ current by n-FMRP is summarized for Kv1.2-WT (n = 8) and Kv1.2-Δ429-500 (n = 8) constructs. d Co-IP of Kv1.2 and FMRP in the absence or presence of three peptides targeting the sequence (436–457) of C-terminus of Kv1.2 as highlighted in a phosphorylated (PhosKv436-457), non-phosphorylated (Kv436-457), and phosphorylated scrambled peptide. e Summary of effect of the three peptides. […] The changes in the amplitude and frequency of sIPSCs are summarized in the right panels for PhosKv436-457 (n = 6, f), non-phosphorylated Kv436-457 (n = 6, g), and scrambled (n = 5, h) peptides.
Fig. 5 DHA rescue and graphical overview of the function of FMRP at the BC–PN synapses. a, b Currents generated by a voltage ramp (−90 to 100 mV) from CHO cells transfected with recombinant Kv1.2 in the absence (black) or presence (red) of DHA (1 µM). These currents are fit with a Boltzmann function: f(V) = Imax/(1+e^(V1/2−V)/Vc)+C, in which “Imax” denotes the theoretical value of the maximal amplitude of Kv1.2 currents; “V1/2” indicates the depolarization voltage needed to produce the half-maximal amplitude of the currents; “Vc” is the slope factor describing the steepness of the Boltzmann curve. The parameters for the two groups (n = 7) are summarized in (b). c, d sIPSCs recorded from PNs in Fmr1-KO slices with (bottom) or without (top) DHA (10 µM). Changes in the amplitude and frequency of sIPSC (n = 8) are quantified in (d). e, f APs from PNs before (top) and after (bottom) DHA application (10 µM). […] In WT BCs, there are two populations of Kv1.2 channels being in either non-phosphorylated or phosphorylated state (with C-termini colored in black and turquoise respectively; +/−P to symbolize phosphate modification). The N-terminus of FMRP dimers directly interact with C-terminus of Kv1.2 only in a phosphorylated state. This interaction enhances the gating (Pathway 1), membrane targeting (Pathway 2), and/or axonal trafficking (Pathway 3) of Kv1.2 in the nerve terminal to control its excitability and Ca^2+ dynamics (blue) critical for tuning inhibitory neurotransmission and ensuring the final output from principal neurons (i.e., PNs). […]

WT mice = experiment: Three-chambered sociability test, WT; type: in vivo, mouse; settings: 200 mg/kg
Source text: as §1

adult Fmr1-KO mice = experiment: Acoustic startle reflex (ASR); type: in vivo, mouse; settings: chow enriched with 0.5% w/w DHA for 1 week; n = 11 versus n = 10 control; double-blind
Procedure: As previously described, acoustic startle response was measured from 7–9-week-old mice, which were submitted to no pulse or a pulse stimulation (120 dB, 40 ms) alone or in combination of a prepulse (either 72, 78, or 82 dB, 20 ms). Maximal startle response was recorded and compared between groups for all types of trials. The sound attenuated chambers and analysis software were obtained from San Diego Instruments (San Diego, USA). One week prior to testing, mice were fed with normal chow or calorically equivalent chow enriched with 0.5% DHA (Sigma) prepared by Research Diets (New Brunswick, USA). Diets were prepared with identical dyes to be indistinguishable by eye. Mice were tested for acoustic startle response only once between 4 p.m. and 7 p.m.

[2] = system: PNs, Fmr1-KO cerebellar slices; experiment: Spontaneous firing of PNs, cell-attached, Fmr1-KO; type: cell-based, mouse; settings: 10 µM, Fmr1-KO, cell-attached; n = 7
[3] = ref Invitrogen; read-out: Kd (Ca2+ indicator); cited from earlier work

Compound | social novelty recognition (Fmr1-KO mice) | amplitude and frequency of sIPSCs (BC–PN synapse, Fmr1-KO) | blood–brain barrier crossing [1] | half-activation voltage (V1/2) (Kv1.2; Boltzmann fit) | maximal amplitude of Kv1.2 currents (Kv1.2; Boltzmann fit) | slope factor (Vc) (Kv1.2; Boltzmann fit) | shift in Kv1.2 currents evoked by voltage ramp (Kv1.2; ramp −90 to 100 mV) | distance travelled during the trials (WT mice; WT, repeated one-way ANOVA, p>0.05) | social behavior of WT mice (WT mice; male C57BL/6J, n = 8, repeated two-way ANOVA) | sniffing time, stranger versus empty cup (WT mice; sociability session, WT, n = 8) | sniffing time, novel stranger versus familiar mouse (WT mice; social novelty session, WT, n = 8) | acoustic startle reflex from 120-dB sound stimulation (adult Fmr1-KO mice) | spike (AP) frequency of PNs [2] | pKd [3]
CC/C=C\C/C=C\C/C=C\C/C=C\C/C=C\C/C=C\CCC(=O)O [DHA, docosahexaenoic acid] | improved the deficient social novelty recognition | reduced amplitude and frequency of sIPSCs | can cross blood–brain barrier | decreased the half-activation voltage (V1/2) | the maximal amplitude was unaffected | increased the slope factor (Vc) | a significant leftward shift in the Kv1.2 currents | No significant differences | did not affect social performance of WT mice; also recorded: did not alter the social behaviors of WT animals | spent more time sniffing the stranger than the empty cup | spent more time sniffing the novel stranger than the familiar one | significantly attenuated ASR | increases the frequency of APs in the Fmr1-KO synapses; also recorded: enhanced the spike frequency of PNs, restoring the firing rate of Fmr1-KOs to the same level as the WTs | –
Fluo-4 | – | – | – | – | – | – | – | – | – | – | – | – | – | 6.46
